Assay results as given in paper PMC6009911, “Inhibition of human cytochromes P450 2A6 and 2A13 by flavonoids, acetylenic thiophenes and sesquiterpene lactones from Pluchea indica and Vernonia cinerea” (Journal of Enzyme Inhibition and Medicinal Chemistry, 2017).
Like-named read-outs stand apart in the source and are kept apart here.

Columns and labels:
Assay type in all cases: biochemical
CYP2A13 [1] = target: T1, CYP2A13 (Homo sapiens, UniProt Q16696); test: Effects of trapping agents and dialysis on inactivation of CYP2A13; details: CYP2A13 inhibition reaction mixture, probe coumarin, compound 5 µM
T1 construct: made in house
T1 sequence (Q16696 1-494): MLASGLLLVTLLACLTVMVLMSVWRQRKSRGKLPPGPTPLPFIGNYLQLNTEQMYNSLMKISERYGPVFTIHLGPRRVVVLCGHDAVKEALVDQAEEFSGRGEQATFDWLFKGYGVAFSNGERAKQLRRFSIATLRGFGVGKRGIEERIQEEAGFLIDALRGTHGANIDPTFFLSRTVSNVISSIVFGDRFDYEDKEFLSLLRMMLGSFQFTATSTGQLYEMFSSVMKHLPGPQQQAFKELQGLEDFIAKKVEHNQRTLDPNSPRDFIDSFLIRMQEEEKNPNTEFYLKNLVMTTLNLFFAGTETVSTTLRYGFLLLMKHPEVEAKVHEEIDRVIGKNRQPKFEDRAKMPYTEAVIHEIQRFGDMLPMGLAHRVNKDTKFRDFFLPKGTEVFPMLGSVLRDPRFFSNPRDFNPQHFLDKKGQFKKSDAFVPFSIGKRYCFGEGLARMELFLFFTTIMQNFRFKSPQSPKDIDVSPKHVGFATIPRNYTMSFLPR
Outline: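 Recombinant enzyme preincubated with inhibitor and NADPH for 0, 10, 20 and 30 min; KI and kinact taken from double-reciprocal plots of kobs versus inhibitor concentration by linear regression. Reversibility probed by dialysis and by adding trapping agents (GSH, semicarbazide, catalase or potassium ferricyanide). Methoxsalen served as mechanism-based control.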

CYP2A6 [2] = target: T2, CYP2A6 (Homo sapiens, UniProt P11509); test: Inhibition of CYP2A6-mediated coumarin 7-hydroxylation, enzymatic reconstitution assay; parameters: made in house
T2 sequence (P11509 1-494): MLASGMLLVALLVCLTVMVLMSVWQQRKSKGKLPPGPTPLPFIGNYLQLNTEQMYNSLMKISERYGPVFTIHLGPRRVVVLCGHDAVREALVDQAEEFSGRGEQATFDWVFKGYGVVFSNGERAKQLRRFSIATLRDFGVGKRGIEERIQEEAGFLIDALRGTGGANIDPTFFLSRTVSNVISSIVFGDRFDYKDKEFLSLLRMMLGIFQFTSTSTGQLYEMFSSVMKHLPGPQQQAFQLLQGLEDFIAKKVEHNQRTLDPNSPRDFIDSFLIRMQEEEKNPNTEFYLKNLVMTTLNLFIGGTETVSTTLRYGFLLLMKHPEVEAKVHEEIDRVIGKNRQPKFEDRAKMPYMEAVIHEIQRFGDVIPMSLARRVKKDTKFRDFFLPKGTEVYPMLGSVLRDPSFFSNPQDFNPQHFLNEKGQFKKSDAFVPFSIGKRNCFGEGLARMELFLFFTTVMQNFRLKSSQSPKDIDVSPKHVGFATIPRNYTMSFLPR
Experimental: Inhibitory effect of plant extracts, fractions, subfractions and constituents was determined by inhibition assay on CYP2A6- and CYP2A13-mediated coumarin 7-hydroxylation. The recombinant human CYP2A6, CYP2A13 and rat NADPH-dependent cytochrome P450 oxidoreductase (CYPOR) proteins were expressed, purified, according to the methods previously described. […] Rate of 7-hydroxycoumarin product formation was measured on spectrofluorometer (Shimadzu, Kyoto, Japan) at λex = 355 nm, λem = 460 nm. Inhibition effects were determined by incubation with extracts, fractions or purified compounds with coumarin substrate in the reaction mixture and calculated as per cent relative inhibition compared with vehicle control reaction[20] and IC50 values were calculated using GraphPad Prism 5 (GraphPad Software Inc., La Jolla, CA).
(§1) MBI requires NADPH and time to generate reactive intermediate as inhibitor and ultimately inactivates the enzyme. MBI was evaluated by pre-incubation with each test inhibitor in the reaction at different time periods (0, 10, 20 and 30 min) in the presence of NADPH for time-dependent assay, as described. The apparent inactivation constants, KI and Kinact, were obtained from double reciprocal plots of kobs versus inhibitor concentrations by linear regression analysis on GraphPad Prism 5. Methoxsalen was used as a control mechanism-based inhibitor for time- and NADPH-dependent inhibition assays.

CYP2A13 [3] = target: T1, CYP2A13; test: Mechanism-based (time- and NADPH-dependent) inactivation of CYP2A13
Outline: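 Inhibitor preincubated with enzyme and NADPH for 0, 10, 20 and 30 min before the reaction. KI and Kinact derived from double reciprocal plots of kobs versus inhibitor concentration by linear regression; methoxsalen served as reference inactivator.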

CYP2A6 [4] = target: T2, CYP2A6; test: Inhibition of CYP2A6-mediated nicotine metabolism; parameters: made in house; details: compound at IC50 value; nicotine 50 μM; 30 min; Supplemental Figure S2
Experimental: Supplementary Figure S2. Inhibition effects of thiophene 11 on CYP2A6-mediated […]
mediated nicotine metabolism (B). Nicotine metabolism in the presence and absence of inhibitory test compounds, at IC50 value, was performed by incubation of the reaction mixture with nicotine substrate (a final concentration of 50 μM) prior to initiation of each reaction with 50 μM NADPH at room temperature. Each reaction was terminated by addition of ice-cold acetronitrile at 30 min incubation and 50 pmol 7-hydroxycoumarin as internal standard was added. The reaction was centrifuged (12,000 rpm, 10 min, 4 °C) and 20 μl of each sample was analyzed on symmetry RP-C18 column (3.9×150 mm). Gradient condition was isocratic of 12% ACN: 2-propanol (7:3) in 10 mM potassium phosphate buffer (pH 7.4) at flow rate of 1 ml/min. The nicotine peak area in each reaction was compared with that of time zero. The enzyme activity was determined as percent substrate consumption over 30 min. The reactions were […]
(1 picture or pasted object on this page, not shown here)

CYP2A6 [5] = target: T2, CYP2A6; test: Effects of trapping agents and dialysis on inactivation of CYP2A6; parameters: made in house; details: CYP2A6 inhibition reaction mixture, probe coumarin, compound 5 µM
Experimental: as §1
To explore whether inactivation of CYP2As by thiophenes 9–11 and of CYP2A13 by hirsutinolides 5-8 could be reversed, the removal of reversible inhibitory compounds by dialysis and addition of trapping agents (GSH, semicarbazide, catalase or potassium ferricyanide) in the inhibition reaction mixture were performed. […] Similarly, mechanism-based inactivation of both CYP2A6 and CYP2A13 by thiophenes 9–11 could not be reversed (Table 3).

CYP2A6 [6] = target: T2, CYP2A6; test: Mechanism-based (time- and NADPH-dependent) inactivation of CYP2A6; parameters: made in house
Experimental: as §1

CYP2A13 [7] = target: T1, CYP2A13; test: Inhibition of CYP2A13-mediated coumarin 7-hydroxylation, enzymatic reconstitution assay
Outline: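 Purified recombinant CYP2A6 or CYP2A13 reconstituted with rat CYPOR; coumarin 7-hydroxylation read by 7-hydroxycoumarin fluorescence (ex 355/em 460 nm), inhibition as % of vehicle control with IC50 fitted.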

[8] = read-out: Per cent remaining activity, 70 μM K3Fe(CN)6
[9] = read-out: Per cent remaining activity, 2 mM GSH
[10] = read-out: Per cent remaining activity, 5 mM semicarbazide
[11] = read-out: Per cent remaining activity, 2000 U catalase
[12] = read-out: Per cent remaining activity, Dialysis (+) NADPH
[13] = read-out: Per cent remaining activity, Dialysis (−) NADPH
[14] = read-out: Per cent remaining activity, Pre-incubation
[15] = time- and concentration-dependent inactivation

activity at 5 µM (CYP2A13 [1]; [8]): 18.87 ± 0.18%
activity at 5 µM (CYP2A13 [1]; [9]): 23.5 ± 1.72%
activity at 5 µM (CYP2A13 [1]; [10]): 19.6 ± 2.73%
activity at 5 µM (CYP2A13 [1]; [11]): 19.5 ± 2.95%
activity at 5 µM (CYP2A13 [1]; [12]): 19.6 ± 4.21%
activity at 5 µM (CYP2A13 [1]; [13]): 96.84 ± 0.73%
activity at 5 µM (CYP2A13 [1]; [14]): 20.2 ± 2.76%
CYP2A6 Mode of inhibition (CYP2A6 [2]): Mixed type
IC50 (CYP2A6 [2]; 10-min pre-incubation in the presence of NADPH, read-out: IC50 CYP2A6 Pre-incubation): 180 ± 10 nM
IC50 (CYP2A6 [2]; coincubation, coumarin 2 µM, read-out: IC50 CYP2A6 Coincubation): 3900 ± 200 nM
Ki (CYP2A6 [2]; coumarin 0–40 µM): 1800 ± 180 nM
kinact (CYP2A13 [3]; pre-incubation 0-30 min with NADPH): 0.000833 s⁻¹
KI (inactivation) (CYP2A13 [3]; pre-incubation 0-30 min with NADPH, read-out: CYP2A13 KI (inactivation constant)): 670 ± 80 nM
KI, CYP2A13 (in Figure 2) (CYP2A13 [3]; [15]): 0.67 ± 0.08
inhibition of CYP2A6-mediated nicotine metabolism (CYP2A6 [4]): showed inhibition
activity at 5 µM (CYP2A6 [5]; [8]): 11.2 ± 2.96%
activity at 5 µM (CYP2A6 [5]; [9]): 8.42 ± 0.9%
activity at 5 µM (CYP2A6 [5]; [10]): 12.9 ± 3.47%
activity at 5 µM (CYP2A6 [5]; [11]): 14.4 ± 1.41%
activity at 5 µM (CYP2A6 [5]; [12]): 10.1 ± 1.84%
activity at 5 µM (CYP2A6 [5]; [13]): 82.4 ± 2.49%
activity at 5 µM (CYP2A6 [5]; [14]): 12.5 ± 1.93%
kinact (CYP2A6 [6]; human, recombinant human CYP2A6, probe coumarin, pre-incubation 0-30 min with NADPH): 0.00167 s⁻¹
KI (inactivation) (CYP2A6 [6]; human, recombinant human CYP2A6, probe coumarin, pre-incubation 0-30 min with NADPH, read-out: CYP2A6 KI (inactivation constant)): 110 ± 20 nM
KI, CYP2A6 (in Figure 2) (CYP2A6 [6]; [15]): 0.11 ± 0.02
CYP2A13 Mode of inhibition (CYP2A13 [7]): Mixed type
IC50 (CYP2A13 [7]; 10-min pre-incubation in the presence of NADPH, read-out: IC50 CYP2A13 Pre-incubation): 1470 ± 120 nM
IC50 (CYP2A13 [7]; coincubation, coumarin 2 µM, read-out: IC50 CYP2A13 Coincubation): 2400 ± 330 nM
Ki (CYP2A13 [7]; coumarin 0–40 µM): 1080 ± 50 nM
SMILES: CC#Cc1ccc(C#CC#CC(O)CO)s1 (centres unmarked) [Thiophene 11, 2-(prop-1-inyl)-5–(5,6-dihydroxyhexa-1,3-diinyl) thiophene]
